Literature values as cited in patent US8138216B2, “Cannabinoid receptor antagonists/inverse agonists useful for treating metabolic disorders, including obesity and diabetes” (Jenrin Discovery, Inc., priority 2007, dated 2012).

Tested on: patients with type 2 diabetes
Conditions: after six months of treatment; baseline value 7.9; patients not treated with other anti-diabetic medications; placebo 0.3%

For `Cc1c(C(=O)NN2CCCCC2)nn(-c2ccc(Cl)cc2Cl)c1-c1ccc(Cl)cc1` [rimonabant], the HbA1c levels lowered is given as 0.8%.
